Measured values: patent US20100130579A1, “CANCER THERAPY” (Georgetown University, priority 2006, published 2010)

Key:
RASSF1 gene = assay: Gene array (microarray) analysis of RASSF1 expression; type: cell-based, human; details: PC3 cells, 2 μg/ml mahanine, 2 days, compared to vehicle-treated control
Experimental: FIGS. 1A-1D. Mahanine induces RASSF1A in prostate and other cancer cells. FIG. 1A: Microarray analyses of PC3 cells treated with ([…] (+) or vehicle (−) for 2 days, RNA was extracted and microarray analysis was performed. FIG. 1B: RT-PCR data showing the expression of RASSF1A and GAPDH in untreated normal prostate epithelial cells (PrEC) and human prostate cancer cells (PC3). FIG. 1C: PC3 (left panel) and LNCaP (right panel) cells were treated with 0, 1, 2 and 3 μg/ml mahanine for 3 days. RNA was extracted, and RT-PCR assays were performed to detect RASSF1A and GAPDH expression. Representative photograph from an experiment that was repeated thrice. Quantitative estimations of relative levels of RASSF1A mRNAs (lower panels) were determined by densitometric measurements of RT-PCR gels from three independent experiments after normalization with GAPDH. […]
Microarray analysis: Total RNA was isolated from […] cells treated with or without mahanine using TRIZOL reagent (Invitrogen Corp., Carlsbad, Calif.). […] RNA was evaluated by electrophoresis before continuing with probe synthesis and hybridization. […] Following repetitive washing in saline-sodium citrate/SDS, hybridized cDNA probes were detected by chemiluminescence. […] Bound biotinylated cDNA probe was detected with alkaline phosphatase-conjugated streptavidin and CDP-Star chemiluminescent substrate (SuperArray). […]

PC3 cells = assay: Flow cytometric cell cycle analysis, PC3; type: cell-based, human; details: 3 days
Experimental: FIG. 4A-4B. Mahanine arrests prostate cancer cells at G0/G1 phase of cell cycle. To determine if down-regulation of cyclin D1 by mahanine treatments affect cell cycle, PC3 4(A) and LNCaP 4(B) cells were treated with 0, 1 and 2 μg/ml mahanine for 3 days. After treatment, flow cytometric analyses were performed. The percentage of cells in the G0/G1, S and G2/M-phase of the cell cycle were shown on right. FACS analysis of PC3 and LNCaP prostate cancer cells with vehicle or 2 μg/ml mahanine are shown in the left panel. Values are the mean from two independent experiments in duplicates.
Since cyclin D1 regulates cell cycle progression at the G0/G1 phase, Aplicants examined the cell cycle profile of PC3 and LNCaP cells in the presence of various concentrations of mahanine.

cyclin D1 = assay: RT-PCR of cyclin D1 mRNA in cancer cells; type: cell-based, human
LNCaP and PC3 cells = details: androgen-responsive LNCaP and androgen-independent PC3 cells; cited from earlier work
cyclin D1 promoter = assay: Cyclin D1 promoter activity (luciferase) assay; type: cell-based, human; details: PC3 cells
Experimental: FIGS. 6A-6B. Mahanine regulates the transcriptional activity of cyclin D1 and RASSF1A siRNA prevents mahanine-induced repression of cyclin D1 transcriptional activity. FIG. 6A: PC3 cells were transfected with 200 ng of full-length cyclin D1 promoter luciferase plasmids (−1745cyclin D1-Luc) or basic luciferase (PA3-Luc) plasmids and 10 ng of Renilla luciferase (pRL-TK-Luc) plasmids. Twenty-four hours after transfection cells were treated with 0, 1 and 2 μg/ml mahanine for 48 hours in normal growth media. FIG. 6B: PC3 cells were transfected with 200 ng of full-length cyclin D1 promoter luciferase plasmids or basic luciferase plasmids and 10 ng of Renilla luciferase (pRL-TK-Luc) plasmids with 200 ng of RASSF1A or RASSF1A siRNA with or without 2 μg/ml mahanine for 48 hours in normal growth media. After treatment, cells were harvested, and luciferase assays were performed. Relative cyclin D1 promoter activity was determined after normalization with Renilla luciferase activity. […]
Cyclin D1 promoter activity assay: PC3 cells were transfected with 200 ng of cyclin D1 promoter-luciferase (−1745-cyclin D1-Luc) (35) construct using GeneJammer transfection reagent (Stratagene, La Jolla, Calif.). […] After 48 hours, luciferase activity was measured in cell lysates in a microplate luminometer using the Dual Luciferase Assay kit (Promega, Madison, Wis.) according to the manufacturer's protocol. […]

Akt = details: prostate cancer cells; cited from earlier work

For `CC(C)=CCC[C@@]1(C)C=Cc2c(c(C)cc3c2[nH]c2cc(O)ccc23)O1` [mahanine], the “RASSF1 gene expression (gene array)” value (RASSF1 gene) was “dramatically induced”, the “cells in S-phase” value (PC3 cells; 1 μg/ml, vehicle 7.5%) was “decreased the S-phase” and the “cells in G0/G1-phase” value (PC3 cells; 1 μg/ml, vehicle 26%) was “increased the G0/G1-phase”. The “cells in G0/G1-phase” value (PC3 cells; 2 μg/ml) was “further increased”, the “cells in S-phase” value (PC3 cells; 2 μg/ml) was “completely abolished” and the “cyclin D1 expression (RT-PCR)” value (cyclin D1; PC3 cells, 1, 2 and 3 μg/ml, 3 days) was “down-regulated the expression of cyclin D1 in PC3 cells in a dose-dependent manner”. The “cyclin D1 expression (RT-PCR)” value (cyclin D1; epidermoid (A431), lung (A549), pancreatic (ASPC-1), colon (HT-29), breast (MCF7) and ovarian (SKOV-3) cancer cells, 2 and 3 μg/ml, 2 days) was “down regulation of cyclin D1”, the “growth of prostate cancer cells” value (LNCaP and PC3 cells) was “inhibits growth in a dose-dependent manner” and the “cyclin D1 promoter activity” value (cyclin D1 promoter; 1 and 2 μg/ml mahanine, 48 hours, P<0.01) was “decreased cyclin D1 promoter activity in a dose-dependent manner”. For the same compound, the “cyclin D1 promoter activity relative to basic vector transfected cells” value (cyclin D1 promoter; full-length cyclin D1 promoter luciferase construct) was “approximately 20 fold” and the Akt activation state (Akt) was “deactivated Akt”.
